Results as given in ChEMBL document CHEMBL3399952, “Design and synthesis of novel anti-tuberculosis agents from the celecoxib pharmacophore” (Bioorg Med Chem, 2015).
pIC50: −log10 of the molar value. Active and inactive are the calls of the source. The calls are words filed in the database; no cut-off is given here.

Legend:
[1] = Cytotoxicity against human macrophages assessed as cell death at > 10 uM by TMRE-based assay; conditions: macrophage
[2] = test system: Mycobacterium tuberculosis; experiment: Antimycobacterial activity against Mycobacterium tuberculosis H37Rv expressing Lux infected in human macrophages assessed as reduction in growth measured at <= 2.5 uM after 72 hrs by bioluminescence assay; assay type: functional, organism-based
[3] = test system: Mycobacterium tuberculosis; experiment: Antimycobacterial activity against Mycobacterium tuberculosis H37Rv expressing Lux assessed as reduction in growth measured after 3 weeks by bioluminescence assay; assay type: functional, organism-based; conditions: 504 h
[4] = test system: Mycobacterium tuberculosis; experiment: Antimycobacterial activity against Mycobacterium tuberculosis H37Rv assessed as reduction in growth measured at <= 2.5 uM after 72 hrs by CFU assay; assay type: functional
[5] = Cytotoxicity against human macrophages assessed as cell death at 1.25 to 40 uM after 48 hrs by TMRE-based assay; conditions: macrophage
[6] = test system: Mycobacterium tuberculosis; experiment: Antimycobacterial activity against Mycobacterium tuberculosis H37Rv expressing Lux infected in human macrophages assessed as […] reduction in growth measured at 5 uM after 48 hrs by bioluminescence assay; assay type: functional, organism-based
[7] = test system: Mycobacterium tuberculosis; experiment: Antimycobacterial activity against Mycobacterium tuberculosis H37Rv expressing Lux assessed as reduction in growth measured at 5 uM after 3 weeks by bioluminescence assay; assay type: functional, organism-based
[8] = test system: Mycobacterium tuberculosis; experiment: Antimycobacterial activity against Mycobacterium tuberculosis H37Rv expressing Lux infected in human macrophages assessed as reduction in growth measured at 5 to 20 uM after 3 weeks by bioluminescence assay; assay type: functional, organism-based
[9] = Cytotoxicity against human macrophages assessed as cell death at 20 uM by TMRE-based assay; set-up: species or system Macrophage; conditions: read-out: INH
[10] = test system: Mycobacterium tuberculosis; experiment: Antimycobacterial activity against Mycobacterium tuberculosis H37Rv assessed as reduction in growth measured after 48 hrs by CFU assay; assay type: functional

Structure (SMILES) | inhibition [2] | pIC50 [3] | fold change (FC) [4] | Activity [5] | further results
CNC(=O)CCc1cc(-c2ccc(-c3ccc(C(F)(F)F)cc3)cc2)n(-c2ccc(NC(=O)c3ccc(N)cc3)cc2)n1 | Active | 6.49 | >1 | – | Activity [1]: Toxic
CNC(=O)CCc1cc(-c2ccc(-c3ccc(C(F)(F)F)cc3)cc2)n(-c2ccc(NC(=O)c3ccncc3)cc2)n1 | Active | 6.32 | >1 | Non-toxic | inhibition [6]: Active
CNC(=O)CCc1cc(-c2ccc(-c3ccc(C(F)(F)F)cc3)cc2)n(-c2ccc(NS(=O)(=O)NC(=O)OC(C)(C)C)cc2)n1 | – | – | – | – | inhibition [7]: Active; inhibition [8]: Active; cytotoxicity at 20 µM [9]: 26%
CNC(=O)CCc1cc(-c2ccc(-c3ccc(C(F)(F)F)cc3)cc2)nn1-c1ccc(NC(=O)c2ccncc2)cc1 | Active | 6.57 | >1 | Non-toxic | inhibition [6]: Active
O=[N+]([O-])c1cn2c(n1)OC[C@@H](OCc1ccc(OC(F)(F)F)cc1)C2 [PRETOMANID] | – | 6.40 | – | – | –
CNC(=O)CCc1cc(-c2ccc(-c3ccc(C(F)(F)F)cc3)cc2)n(-c2ccc(NC(=O)c3cn(C)cn3)cc2)n1 | Active | 6.74 | >1 | Non-toxic | –
NS(=O)(=O)Nc1ccc(-n2nc(C(F)(F)F)cc2-c2ccc3c(ccc4ccccc43)c2)cc1 | – | – | – | – | fold change (FC) [10]: 1
COc1nc2ccc(Br)cc2cc1[C@@H](c1ccccc1)[C@@](O)(CCN(C)C)c1cccc2ccccc12 [BEDAQUILINE] | – | 7.30 | – | – | –
CCc1nc2ccc(Cl)cn2c1C(=O)NCc1ccc(N2CCC(c3ccc(OC(F)(F)F)cc3)CC2)cc1 [TELACEBEC] | – | > 8.52 | – | – | –
CNC(=O)CCc1cc(-c2ccc(-c3ccc(C(F)(F)F)cc3)cc2)n(-c2ccc(NC(=O)c3ccnc(C)c3)cc2)n1 | Active | 6.54 | >1 | Non-toxic | inhibition [6]: Active
CNC(=O)CCc1cc(-c2ccc(-c3ccc(C(F)(F)F)cc3)cc2)n(-c2ccc(NS(=O)(=O)N(C)C)cc2)n1 | – | 5.66 | – | – | inhibition [7]: Active; inhibition [8]: Active; cytotoxicity at 20 µM [9]: 4%
CNC(=O)CCc1cc(-c2ccc(-c3ccc(C(F)(F)F)cc3)cc2)n(-c2ccc(NC(=O)c3ccncc3Cl)cc2)n1 | Active | 6.37 | >1 | Non-toxic | –
NNC(=O)c1ccncc1 [ISONIAZID] | – | 6.48 | – | – | inhibition [7]: Active
